Results: the RepoRT retention time repository (doi:10.1007/s11306-014-0727-x)
Counter-ions that a name gives are not always drawn.

Assay: HILIC, Merck SeQuant ZIC-pHILIC, 100 × 2.1 mm, 5 µm, 25 °C; gradient (min/%B) 0/3 1/3 12/30 14.5/90 17/90 18.5/3 24/3
Conditions: stereoisomer not certain

Row | LC retention time [min] | SMILES
1 | 9.74 | COc1ccc2[nH]cc(CC(N)C(=O)O)c2c1 (racemic) [5-Methoxy-DL-tryptophan]
2 | 15.9 | NCCC(N)C(=O)O (racemic) [DL-2-4-Diaminobutyric acid dihydrochloride]
3 | 14.8 | NC(CCCC(N)C(=O)O)C(=O)O (racemic) [DL-2-6-Diaminopimelic acid]
4 | 13.6 | NC(CC(=O)O)C(=O)O (racemic) [DL-Aspartic acid]
5 | 11.1 | NC(CCS)C(=O)O (racemic) [DL-Homocysteine]
6 | 13.5 | OCC1OC(OC2C(CO)OC(O)C(O)C2O)C(O)C(O)C1O (single isomer, unassigned; peak a) [Lactose Peak A]
7 | 7.15 | Nc1ncnc2c1ncn2C1CC(O)C(CO)O1 (centres undefined) [2'-Deoxyadenosine]
8 | 9.54 | O=C(O)c1cc(=O)c2cccc(O)c2[nH]1 [4 8-Dihydroxyquinoline-2-carboxylic acid]
9 | 1.17 | CN(C)c1ccc(C=CC=O)cc1 [4-(dimethyl amino) cinnamaldehyde]
10 | 2.88 | CC(C)=CCNc1ncnc2nc[nH]c12 [6-(Y-Y-Dimethylallylamino)purine]
11 | 1.74 | c1cnc2[nH]ccc2c1 [7-Azaindole]
12 | 2.38 | CC(N)=O [Acetamide]
13 | 8.22 | Nc1ncnc2nc[nH]c12 [Adenine]
14 | 7.78 | Nc1ncnc2c1ncn2C1OC(CO)C(O)C1O (centres undefined) [Adenosine]
15 | 12.1 | CC(N)C(=O)O (centres undefined) [Alanine]
16 | 12.7 | CC(N)(CO)CO [Amino-2-methylpropane-1 3-diol 2-]
17 | 10.2 | NCc1ccccc1 [Benzylamine]
18 | 1.06 | CC(=O)OCC1OC(OC(C)=O)C(OC(C)=O)C(OC(C)=O)C1OC(C)=O (stereo not drawn) [Beta-Penta acetyl glucose]
19 | 8.63 | Oc1cc(O)c2c(c1)OC(c1ccc(O)c(O)c1)C(O)C2 (centres undefined) [Catechin]
20 | 9.87 | CN1CC(=O)NC1=N [Creatinine]
21 | 11.8 | NC(CS)C(=O)O (centres undefined) [Cysteine]
22 | 10.5 | Nc1ccn(C2OC(CO)C(O)C2O)c(=O)n1 (centres undefined) [Cytidine]
23 | 10.4 | Nc1ccnc(=O)[nH]1 [Cytosine]

Row | LC retention time [min] | SMILES
24 | 12.6 | O=C(CO)C(OC1OC(CO)C(O)C(O)C1O)C(O)C(O)CO (stereo not drawn) [D(+)turanose]
25 | 9.5 | CC(C)C[C@@H](N)C(=O)O [D-Leucine]
26 | 10.1 | N[C@H](Cc1c[nH]c2ccccc12)C(=O)O [D-Tryptophan]
27 | 9.76 | Nc1ccccc1C(=O)CC(N)C(=O)O [D-kynurenine]
28 | 10.5 | CC(C)[C@@H](N)C(=O)O [D-valine]
29 | 10 | Nc1ccn(C2CC(O)C(CO)O2)c(=O)n1 (centres undefined) [Deoxycytidine]
30 | 9.48 | Nc1nc2c(ncn2C2CC(O)C(CO)O2)c(=O)[nH]1 (centres undefined) [Deoxyguanosine]
31 | 8.91 | COc1ccc(Cc2cnc(N)nc2N)cc1OC [Diaveridine]
32 | 7.37 | c1ccc(CNCc2ccccc2)cc1 [Dibenzylamine]
33 | 11.3 | OCCNCCO [Diethanolamine]
34 | 12.7 | NC(Cc1ccc(O)c(O)c1)C(=O)O [Dihydroxyphenyl-analine L-3 4]
35 | 7.54 | CN(C)Cc1ccccc1 [Dimethylbenzylamine N N-]
36 | 12.9 | NCCO [Ethanolamine]
37 | 11.4 | Nc1nc2ncc(CNc3ccc(C(=O)NC(CCC(=O)O)C(=O)O)cc3)nc2c(=O)[nH]1 (centres undefined) [Folic Acid]
38 | 11.6 | NCCCC(=O)O [Gamma-amino-n-butyric acid]
39 | 12.9 | NC(=O)CCC(N)C(=O)O [Glutamine L-]
40 | 12.8 | NC(N)=NCC(=O)O [Glycocyamine]
41 | 14.4 | NCC(=O)NCC(=O)O [Glycylglycine]
42 | 9.81 | Nc1nc2nc[nH]c2c(=O)[nH]1 [Guanine]
43 | 10.6 | Nc1nc2c(ncn2C2OC(CO)C(O)C2O)c(=O)[nH]1 (centres undefined) [Guanosine]
44 | 7.88 | O=c1[nH]cnc2nc[nH]c12 [Hypoxanthine]
45 | 10.4 | c1c[nH]cn1 [Imidazole]
46 | 13.7 | O=C(O)CNCC(=O)O [Iminodiacetic acid]

Row | LC retention time [min] | SMILES
47 | 2.48 | NC(=O)Cc1c[nH]c2ccccc12 [Indole-3-acetamide]
48 | 9.18 | O=c1[nH]cnc2c1ncn2C1OC(CO)C(O)C1O (centres undefined) [Inosine]
49 | 11 | O=C(O)C1CCNCC1 [Isonipecotic acid]
50 | 12.4 | N[C@@H](CCCC(=O)O)C(=O)O [L-2-Aminoadipic acid]
51 | 13.5 | O=P([O-])([O-])OCC(O)CO [L-Alpha-Glycerophosphate]
52 | 16 | NC(N)=NCCC[C@H](N)C(=O)O [L-Arginine]
53 | 13.2 | NC(=O)C[C@H](N)C(=O)O [L-Asparagine]
54 | 15.7 | N[C@@H](Cc1cnc[nH]1)C(=O)O [L-Histidine monohydrochloride]
55 | 12.6 | N[C@@H](CCO)C(=O)O [L-Homoserine]
56 | 15.9 | NCCCC[C@H](N)C(=O)O [L-Lysine]
57 | 9.62 | CCCC[C@H](N)C(=O)O [L-Norleucine]
58 | 15.9 | NCCC[C@H](N)C(=O)O [L-Ornithine]
59 | 10.4 | O=C(O)[C@@H]1CCCN1 [L-Proline]
60 | 10.6 | CCNC(=O)CC[C@H](N)C(=O)O [L-Theanine]
61 | 11.6 | CCC(N)C(=O)O [L-a-Amino-n-butyric acid]
62 | 11.9 | Cl.N[C@@H](CS)C(=O)O.O [L-cysteine hydrochloride hydrate]
63 | 10 | CC(C)(C)[C@H](N)C(=O)O [L-tert-Leucine]
64 | 12.5 | C[C@@H](O)[C@H](N)C(=O)O [L-threonine]
65 | 11.2 | N[C@@H](Cc1ccc(O)cc1)C(=O)O [L-tyrosine]
66 | 7.45 | CC(O)C(=O)O (centres undefined) [Lactic acid]
67 | 14.3 | O=C(O)C(O)C(O)C(OC1OC(CO)C(O)C(O)C1O)C(O)CO (centres undefined) [Lactobionic acid]
68 | 6.55 | O=c1c(O)c(-c2ccc(O)cc2O)oc2cc(O)cc(O)c12 [Morin]
69 | 10.4 | C1COCCN1 [Morpholine]

Row | LC retention time [min] | SMILES
70 | 7.51 | CC1OC(OC2C(Oc3cc(O)c4c(c3)OC(c3ccc(O)cc3)CC4=O)OC(CO)C(O)C2O)C(O)C(O)C1O (centres undefined) [Naringin CHR]
71 | 14.1 | NC(=O)c1ccc[n+](C2OC(COP(=O)(O)OP(=O)([O-])OCC3OC(n4cnc5c(N)ncnc54)C(O)C3O)C(O)C2O)c1 (centres undefined) [Nicotinamide adenine dinucleotide]
72 | 2.35 | O=C(O)c1cccnc1 [Nicotinic acid]
73 | 10.4 | COC(C)C(N)C(=O)O (centres undefined) [O-methyl threonine]
74 | 14.5 | C[C@@H](OP(=O)(O)O)[C@H](N)C(=O)O [O-phospho-L-threonine]
75 | 2.26 | Nc1ccc(C(=O)O)cc1 [P-Aminobenzoic acid]
76 | 7.09 | O=C(CCc1ccc(O)cc1)c1c(O)cc(O)cc1OC1OC(CO)C(O)C(O)C1O (centres undefined) [Phloridzin]
77 | 10.3 | Cc1ncc(COP(=O)(O)O)c(C=O)c1O [Pyridoxal-5'-phosphate]
78 | 9.21 | Cc1ncc(CO)c(CO)c1O [Pyridoxine]
79 | 1.9 | O=C(O)c1ccc2ccccc2n1 [Quinaldic acid]
80 | 7.85 | Cc1cc2nc3c(=O)[nH]c(=O)nc-3n(CC(O)C(O)C(O)CO)c2cc1C (centres undefined) [Riboflavin]
81 | 9.3 | CC1OC(OCC2OC(Oc3c(-c4ccc(O)c(O)c4)oc4cc(O)cc(O)c4c3=O)C(O)C(O)C2O)C(O)C(O)C1O (centres undefined) [Rutin Trihydrate]
82 | 13.2 | NC(CO)C(=O)O [Serine L-]
83 | 12.6 | NCCS(=O)(=O)O [Taurine]
84 | 2.28 | Cn1c(=O)c2[nH]cnc2n(C)c1=O [Theophylline]
85 | 11.9 | Cc1cn(C2CC(O)C(COP(=O)(O)O)O2)c(=O)[nH]c1=O (centres undefined) [Thymidine monophosphate]
86 | 4.41 | Cc1cn(C2CC(O)C(CO)O2)c(=O)[nH]c1=O (centres undefined) [Thymidine]
87 | 3.51 | Cc1c[nH]c(=O)[nH]c1=O [Thymine]
88 | 12.1 | O=C(O)[C@@H]1C[C@@H](O)CN1 [Trans-4-hydroxy-L-proline]
89 | 7.16 | NC(N)=O [Urea]
90 | 8.29 | O=c1[nH]c(=O)c2[nH]cnc2[nH]1 [Xanthine]
91 | 1.22 | O=c1c2ccccc2oc2ccccc12 [Xanthone]
92 | 5.67 | Nc1ccc(C(=O)NCC(=O)O)cc1 [p-aminohippuric acid]

Row | SMILES | LC retention time [min]
93 | COc1ccc2[nH]cc(CCN)c2c1 [5-methoxytryptamine] | 9.56
94 | O=C(O)CC1OCC=C2CN3CCC45C6=CC(=O)C(=O)C([N+](=O)[O-])=C6NC4C1C2CC35 (centres undefined) [Cacotheline] | 11.6
95 | COc1cc2c(c(OC)c1OC)-c1ccc(OC)c(=O)cc1C(NC(C)=O)CC2 (centres undefined) [Colchicine] | 1.36
96 | COc1cc(-c2ccc(N)c(OC)c2)ccc1N [Dianisidine o-] | 1.46
97 | C(=NC1CCCCC1)=NC1CCCCC1 [Dicyclohexylcarbodiimide-n n'] | 1.09
98 | NCCc1c[nH]c2ccccc12 [Tryptamine] | 9.86
99 | NCCc1ccc(O)cc1 [Tyramine] | 10.5
